Assay results: ChEMBL document CHEMBL4507290 (2021)

Experiments:
[1] = target: Bone morphogenetic protein receptor type-1B (Homo sapiens) (UniProt O00238); settings: Compound concentration 1000.0 nM
[2] = target: 5-hydroxytryptamine receptor 7 (Homo sapiens) (UniProt P34969); settings: Compound concentration 10.0 uM
[3] = target: Calcium/calmodulin-dependent protein kinase type 1 (Homo sapiens) (UniProt Q14012); settings: Compound concentration 1000.0 nM
[4] = target: Cyclin-dependent kinase 11A (Homo sapiens) (UniProt Q9UQ88); settings: Compound concentration 1000.0 nM
[5] = target: Mitogen-activated protein kinase 6 (Homo sapiens) (UniProt Q16659); settings: Compound concentration 1000.0 nM
Mitogen-activated protein kinase 6 (Homo sapiens), sequence (Q16659 whole entry): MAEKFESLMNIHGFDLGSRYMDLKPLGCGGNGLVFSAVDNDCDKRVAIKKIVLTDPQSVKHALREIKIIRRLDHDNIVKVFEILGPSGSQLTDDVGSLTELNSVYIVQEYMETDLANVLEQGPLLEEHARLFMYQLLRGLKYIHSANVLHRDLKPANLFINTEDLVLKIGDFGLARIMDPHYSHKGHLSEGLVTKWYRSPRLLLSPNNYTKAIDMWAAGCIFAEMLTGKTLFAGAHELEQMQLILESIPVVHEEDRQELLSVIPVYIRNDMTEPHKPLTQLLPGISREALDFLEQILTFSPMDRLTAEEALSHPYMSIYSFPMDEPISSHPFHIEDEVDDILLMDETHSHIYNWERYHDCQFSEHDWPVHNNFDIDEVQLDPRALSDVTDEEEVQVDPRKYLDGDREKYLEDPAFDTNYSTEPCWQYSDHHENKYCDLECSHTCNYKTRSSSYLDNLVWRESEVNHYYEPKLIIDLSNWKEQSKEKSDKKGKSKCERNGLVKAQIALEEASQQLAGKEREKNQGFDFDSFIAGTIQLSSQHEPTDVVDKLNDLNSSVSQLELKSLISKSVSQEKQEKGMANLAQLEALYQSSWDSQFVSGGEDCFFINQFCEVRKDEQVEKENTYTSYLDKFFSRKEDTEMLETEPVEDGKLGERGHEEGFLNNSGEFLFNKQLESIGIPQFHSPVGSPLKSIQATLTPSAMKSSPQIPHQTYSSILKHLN

[6] = target: Serine/threonine-protein kinase Nek11 (Homo sapiens) (UniProt Q8NG66); settings: Compound concentration 1000.0 nM
Serine/threonine-protein kinase Nek11 (Homo sapiens), sequence (Q8NG66 whole entry): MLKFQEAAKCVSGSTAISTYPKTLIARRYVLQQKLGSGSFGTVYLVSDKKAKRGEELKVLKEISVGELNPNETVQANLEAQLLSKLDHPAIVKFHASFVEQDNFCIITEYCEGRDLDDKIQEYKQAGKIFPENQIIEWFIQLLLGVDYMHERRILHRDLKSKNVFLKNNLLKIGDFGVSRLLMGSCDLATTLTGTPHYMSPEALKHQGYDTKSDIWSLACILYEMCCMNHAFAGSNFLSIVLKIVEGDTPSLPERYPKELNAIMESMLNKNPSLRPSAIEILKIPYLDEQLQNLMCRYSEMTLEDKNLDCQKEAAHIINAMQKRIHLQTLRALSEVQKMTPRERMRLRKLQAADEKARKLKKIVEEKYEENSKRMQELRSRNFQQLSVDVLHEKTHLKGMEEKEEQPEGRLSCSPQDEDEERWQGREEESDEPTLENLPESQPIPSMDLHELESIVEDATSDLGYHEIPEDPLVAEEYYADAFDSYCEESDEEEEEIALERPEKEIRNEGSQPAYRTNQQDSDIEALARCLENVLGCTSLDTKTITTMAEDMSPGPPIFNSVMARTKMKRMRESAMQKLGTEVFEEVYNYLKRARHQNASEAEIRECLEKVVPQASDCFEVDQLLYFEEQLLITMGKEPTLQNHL

[7] = target: Cyclin-dependent kinase 16 (Homo sapiens) (UniProt Q00536); settings: Compound concentration 1000.0 nM
[8] = target: Serine/threonine-protein kinase MRCK gamma (Homo sapiens) (UniProt Q6DT37); settings: Compound concentration 1000.0 nM
[9] = target: Ephrin type-A receptor 4 (Homo sapiens) (UniProt P54764); settings: Compound concentration 1000.0 nM
[10] = target: Dual specificity tyrosine-phosphorylation-regulated kinase 1A (Homo sapiens) (UniProt Q13627); settings: Compound concentration 1000.0 nM
[11] = system: Tyrosine-protein kinase ABL1 (Homo sapiens), P00519 [H396P]; settings: Compound concentration 1000.0 nM
[12] = target: Phosphatidylinositol 4,5-bisphosphate 3-kinase catalytic subunit delta isoform (Homo sapiens) (UniProt O00329); settings: Compound concentration 1000.0 nM
[13] = target: Serine/threonine-protein kinase Sgk3 (Homo sapiens) (UniProt Q96BR1); settings: Compound concentration 1000.0 nM
[14] = target: G protein-coupled receptor kinase 3 (Homo sapiens) (UniProt P35626); settings: Compound concentration 1000.0 nM
[15] = target: Serine/threonine-protein kinase ULK1 (Homo sapiens) (UniProt O75385); settings: Compound concentration 1000.0 nM
[16] = target: Serine/threonine-protein kinase Nek6 (Homo sapiens) (UniProt Q9HC98); settings: Compound concentration 1000.0 nM
Serine/threonine-protein kinase Nek6 (Homo sapiens), sequence (Q9HC98 whole entry): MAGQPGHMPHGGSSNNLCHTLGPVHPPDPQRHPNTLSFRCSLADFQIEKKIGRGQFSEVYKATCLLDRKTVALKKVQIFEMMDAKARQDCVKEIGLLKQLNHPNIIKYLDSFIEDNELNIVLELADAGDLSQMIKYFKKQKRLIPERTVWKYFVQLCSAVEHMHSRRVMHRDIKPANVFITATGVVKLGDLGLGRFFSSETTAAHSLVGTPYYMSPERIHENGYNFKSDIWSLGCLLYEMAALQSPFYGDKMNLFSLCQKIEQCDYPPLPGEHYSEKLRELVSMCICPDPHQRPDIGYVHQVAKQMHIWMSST

[17] = target: Ribosomal protein S6 kinase alpha-1 (Homo sapiens) (UniProt Q15418); settings: Compound concentration 1000.0 nM
[18] = target: Mitogen-activated protein kinase kinase kinase 7 (Homo sapiens) (UniProt O43318); settings: Compound concentration 1000.0 nM
[19] = target: cGMP-dependent protein kinase 1 (Homo sapiens) (UniProt Q13976); settings: Compound concentration 1000.0 nM
[20] = target: Phosphorylase b kinase regulatory subunit alpha, liver isoform (Homo sapiens) (UniProt P46019); settings: Compound concentration 1000.0 nM
[21] = target: Atypical kinase COQ8A, mitochondrial (Homo sapiens) (UniProt Q8NI60); settings: Compound concentration 1000.0 nM
Atypical kinase COQ8A, mitochondrial (Homo sapiens), sequence (Q8NI60 163-647 limits assumed): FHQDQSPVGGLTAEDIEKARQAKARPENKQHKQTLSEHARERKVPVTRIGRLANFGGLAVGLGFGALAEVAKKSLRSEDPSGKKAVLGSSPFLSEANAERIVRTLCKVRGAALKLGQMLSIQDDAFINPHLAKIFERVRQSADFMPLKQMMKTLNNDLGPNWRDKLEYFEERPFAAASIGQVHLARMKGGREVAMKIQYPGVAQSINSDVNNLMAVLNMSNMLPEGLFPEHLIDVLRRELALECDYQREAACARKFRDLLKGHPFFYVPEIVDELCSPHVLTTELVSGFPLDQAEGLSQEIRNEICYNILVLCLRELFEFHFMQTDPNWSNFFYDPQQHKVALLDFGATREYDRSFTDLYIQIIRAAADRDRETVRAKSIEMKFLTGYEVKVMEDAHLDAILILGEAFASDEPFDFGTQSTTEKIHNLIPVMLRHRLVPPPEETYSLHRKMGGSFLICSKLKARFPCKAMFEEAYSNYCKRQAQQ

[22] = target: D(3) dopamine receptor (Homo sapiens) (UniProt P35462); settings: Compound concentration 10.0 uM
D(3) dopamine receptor (Homo sapiens), sequence (P35462 whole entry): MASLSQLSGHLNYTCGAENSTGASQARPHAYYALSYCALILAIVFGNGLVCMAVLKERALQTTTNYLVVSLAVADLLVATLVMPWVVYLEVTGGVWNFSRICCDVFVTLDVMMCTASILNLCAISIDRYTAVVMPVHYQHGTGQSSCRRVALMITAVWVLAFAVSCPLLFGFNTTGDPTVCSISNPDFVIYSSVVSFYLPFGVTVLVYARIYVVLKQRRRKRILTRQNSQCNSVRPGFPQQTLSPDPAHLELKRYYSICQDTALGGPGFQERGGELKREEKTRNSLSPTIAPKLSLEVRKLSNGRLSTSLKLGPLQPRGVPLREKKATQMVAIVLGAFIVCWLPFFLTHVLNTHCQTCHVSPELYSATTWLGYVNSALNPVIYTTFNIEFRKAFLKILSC

[23] = target: Serine/threonine-protein kinase 16 (Homo sapiens) (UniProt O75716); settings: Compound concentration 1000.0 nM
Serine/threonine-protein kinase 16 (Homo sapiens), sequence (O75716 whole entry): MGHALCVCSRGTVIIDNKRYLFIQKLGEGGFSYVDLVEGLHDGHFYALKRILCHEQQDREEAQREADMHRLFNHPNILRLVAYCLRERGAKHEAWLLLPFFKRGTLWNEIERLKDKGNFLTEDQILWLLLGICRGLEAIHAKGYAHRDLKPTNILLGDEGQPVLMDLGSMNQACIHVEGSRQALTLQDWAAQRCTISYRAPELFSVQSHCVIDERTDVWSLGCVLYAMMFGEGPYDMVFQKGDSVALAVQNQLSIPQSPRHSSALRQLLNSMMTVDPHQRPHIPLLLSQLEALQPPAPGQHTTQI

[24] = target: Tyrosine-protein kinase JAK3 (Homo sapiens) (UniProt P52333); settings: Compound concentration 1000.0 nM
[25] = target: cAMP-dependent protein kinase catalytic subunit PRKX (Homo sapiens) (UniProt P51817); settings: Compound concentration 1000.0 nM
cAMP-dependent protein kinase catalytic subunit PRKX (Homo sapiens), sequence (P51817 whole entry): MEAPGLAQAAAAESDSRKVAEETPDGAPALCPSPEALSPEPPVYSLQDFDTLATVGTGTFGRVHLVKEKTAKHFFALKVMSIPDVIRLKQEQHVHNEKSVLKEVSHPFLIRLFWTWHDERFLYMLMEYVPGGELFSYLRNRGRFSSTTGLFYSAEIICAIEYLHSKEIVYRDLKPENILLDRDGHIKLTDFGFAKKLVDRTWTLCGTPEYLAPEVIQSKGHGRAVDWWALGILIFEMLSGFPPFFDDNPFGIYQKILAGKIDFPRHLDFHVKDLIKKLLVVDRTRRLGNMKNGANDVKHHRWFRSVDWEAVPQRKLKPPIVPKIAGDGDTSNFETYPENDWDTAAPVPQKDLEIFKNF

[26] = target: Ephrin type-A receptor 7 (Homo sapiens) (UniProt Q15375); settings: Compound concentration 1000.0 nM
[27] = target: Mitogen-activated protein kinase 8 (Homo sapiens) (UniProt P45983); settings: Compound concentration 1000.0 nM
[28] = target: Protein-tyrosine kinase 6 (Homo sapiens) (UniProt Q13882); settings: Compound concentration 1000.0 nM
[29] = target: Serine/threonine-protein kinase Sgk2 (Homo sapiens) (UniProt Q9HBY8); settings: Compound concentration 1000.0 nM
[30] = target: Serine/threonine-protein kinase NIM1 (Homo sapiens) (UniProt Q8IY84); settings: Compound concentration 1000.0 nM
[31] = target: Serine/threonine-protein kinase DCLK3 (Homo sapiens) (UniProt Q9C098); settings: Compound concentration 1000.0 nM
[32] = target: Serine/threonine-protein kinase pim-1 (Homo sapiens) (UniProt P11309); settings: Compound concentration 1000.0 nM
[33] = target: Tyrosine-protein kinase JAK1 (Homo sapiens) (UniProt P23458); settings: Compound concentration 1000.0 nM
[34] = target: Ribosomal protein S6 kinase alpha-4 (Homo sapiens) (UniProt O75676); settings: Compound concentration 1000.0 nM
[35] = target: Serine/threonine-protein kinase SIK2 (Homo sapiens) (UniProt Q9H0K1); settings: Compound concentration 1000.0 nM
[36] = target: Cyclin-dependent kinase 4 (Homo sapiens) (UniProt P11802); settings: Compound concentration 1000.0 nM
[37] = target: Focal adhesion kinase 1 (Homo sapiens) (UniProt Q05397); settings: Compound concentration 1000.0 nM
[38] = target: BDNF/NT-3 growth factors receptor (Homo sapiens) (UniProt Q16620); settings: Compound concentration 1000.0 nM
[39] = target: GABA-A receptor; anion channel (Rattus norvegicus) (UniProt O09028+P15431+P18506+P18508+P19969+P20236+P23574+P23576+P28471+P28473+P30191+P62813+P63079+P63138+Q91ZM7+Q9ES14); settings: Compound concentration 10.0 uM
[40] = target: Muscarinic acetylcholine receptor M1 (Homo sapiens) (UniProt P11229); settings: Compound concentration 10.0 uM
[41] = system: ALK tyrosine kinase receptor (Homo sapiens), Q9UM73 [C1156Y]; settings: Compound concentration 1000.0 nM
ALK tyrosine kinase receptor (Homo sapiens), Q9UM73 [C1156Y], sequence (Q9UM73 whole entry C1156Y, looked up): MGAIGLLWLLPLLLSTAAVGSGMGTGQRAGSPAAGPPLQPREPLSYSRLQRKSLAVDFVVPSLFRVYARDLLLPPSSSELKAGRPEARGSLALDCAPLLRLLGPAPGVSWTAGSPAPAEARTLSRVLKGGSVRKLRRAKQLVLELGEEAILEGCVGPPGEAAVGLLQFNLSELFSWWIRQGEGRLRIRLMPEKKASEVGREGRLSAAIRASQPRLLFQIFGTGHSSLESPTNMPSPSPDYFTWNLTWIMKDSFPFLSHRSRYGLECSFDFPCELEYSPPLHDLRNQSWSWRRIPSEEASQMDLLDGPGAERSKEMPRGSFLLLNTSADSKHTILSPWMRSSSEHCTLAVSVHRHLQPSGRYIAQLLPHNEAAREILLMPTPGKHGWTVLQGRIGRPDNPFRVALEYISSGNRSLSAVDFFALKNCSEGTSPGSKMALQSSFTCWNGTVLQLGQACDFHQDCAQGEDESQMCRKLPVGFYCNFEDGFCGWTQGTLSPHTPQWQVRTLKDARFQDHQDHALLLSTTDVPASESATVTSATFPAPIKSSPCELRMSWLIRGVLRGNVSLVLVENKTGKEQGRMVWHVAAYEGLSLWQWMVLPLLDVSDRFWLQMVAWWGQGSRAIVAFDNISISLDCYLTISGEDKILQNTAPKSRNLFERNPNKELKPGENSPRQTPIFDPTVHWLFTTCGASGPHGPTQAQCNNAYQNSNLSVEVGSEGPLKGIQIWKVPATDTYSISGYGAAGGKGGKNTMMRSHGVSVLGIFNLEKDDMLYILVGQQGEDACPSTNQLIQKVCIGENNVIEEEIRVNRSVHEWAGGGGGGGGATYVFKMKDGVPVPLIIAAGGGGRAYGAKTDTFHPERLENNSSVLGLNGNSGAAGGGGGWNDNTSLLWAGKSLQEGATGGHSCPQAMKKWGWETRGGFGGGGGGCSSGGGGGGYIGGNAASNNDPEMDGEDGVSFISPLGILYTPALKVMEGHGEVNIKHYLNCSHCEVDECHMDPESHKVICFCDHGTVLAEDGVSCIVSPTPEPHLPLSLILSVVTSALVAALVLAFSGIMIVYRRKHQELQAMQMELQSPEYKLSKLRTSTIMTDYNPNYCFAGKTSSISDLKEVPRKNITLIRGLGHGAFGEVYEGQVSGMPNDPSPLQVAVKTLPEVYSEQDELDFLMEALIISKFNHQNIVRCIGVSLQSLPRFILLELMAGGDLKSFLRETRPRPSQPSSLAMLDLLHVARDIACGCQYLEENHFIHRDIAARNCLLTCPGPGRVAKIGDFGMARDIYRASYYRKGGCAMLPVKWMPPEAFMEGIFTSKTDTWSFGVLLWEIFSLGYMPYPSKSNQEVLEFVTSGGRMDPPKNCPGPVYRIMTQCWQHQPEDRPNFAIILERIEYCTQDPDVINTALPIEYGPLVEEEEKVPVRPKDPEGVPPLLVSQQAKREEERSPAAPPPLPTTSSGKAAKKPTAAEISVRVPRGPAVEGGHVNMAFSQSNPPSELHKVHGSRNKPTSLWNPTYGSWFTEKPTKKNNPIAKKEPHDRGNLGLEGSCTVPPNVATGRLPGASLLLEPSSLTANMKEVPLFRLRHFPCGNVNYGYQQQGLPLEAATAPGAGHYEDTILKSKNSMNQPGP

[42] = target: Mitogen-activated protein kinase 15 (Homo sapiens) (UniProt Q8TD08); settings: Compound concentration 1000.0 nM
[43] = target: Myotonin-protein kinase (Homo sapiens) (UniProt Q09013); settings: Compound concentration 1000.0 nM
[44] = target: Tyrosine-protein kinase Srms (Homo sapiens) (UniProt Q9H3Y6); settings: Compound concentration 1000.0 nM

CN([C@@H]1CCc2c(CC(=O)O)c3ccccc3n2C1)S(=O)(=O)c1ccc(F)cc1 [MK-7246]
inactive: residual activity [1] 100% | inhibition [2] 4.11% | residual activity [3] 100% | residual activity [4] 100% | residual activity [5] 100% | residual activity [6] 100% | residual activity [7] 98% | residual activity [8] 100% | residual activity [9] 87% | residual activity [10] 69% | residual activity [11] 100% | residual activity [12] 95% | residual activity [13] 100% | residual activity [14] 70% | residual activity [15] 96% | residual activity [16] 99% | residual activity [17] 100% | residual activity [18] 100% | residual activity [19] 100% | residual activity [20] 100% | residual activity [21] 100% | inhibition [22] -4.25% | residual activity [23] 99% | residual activity [24] 98% | residual activity [25] 100% | residual activity [26] 100% | residual activity [27] 77% | residual activity [28] 100% | residual activity [29] 100% | residual activity [30] 100% | residual activity [31] 99% | residual activity [32] 96% | residual activity [33] 83% | residual activity [34] 96% | residual activity [35] 99% | residual activity [36] 99% | residual activity [37] 100% | residual activity [38] 100% | inhibition [39] 22.4% | inhibition [40] 2.42% | residual activity [41] 98% | residual activity [42] 100% | residual activity [43] 100% | residual activity [44] 81%

CN([C@@H]1CCc2c(CC(=O)O)c3cc(S(C)(=O)=O)ccc3n2C1)S(=O)(=O)c1ccc(F)cc1
inactive: residual activity [1] 100% | inhibition [2] -3.44% | residual activity [3] 80% | residual activity [4] 100% | residual activity [5] 100% | residual activity [6] 100% | residual activity [7] 84% | residual activity [8] 93% | residual activity [9] 93% | residual activity [10] 81% | residual activity [11] 55% | residual activity [12] 100% | residual activity [13] 85% | residual activity [14] 81% | residual activity [15] 92% | residual activity [16] 84% | residual activity [17] 91% | residual activity [18] 100% | residual activity [19] 95% | residual activity [20] 100% | residual activity [21] 87% | inhibition [22] -5.72% | residual activity [23] 95% | residual activity [24] 100% | residual activity [25] 100% | residual activity [26] 100% | residual activity [27] 90% | residual activity [28] 92% | residual activity [29] 100% | residual activity [30] 100% | residual activity [31] 71% | residual activity [32] 100% | residual activity [33] 94% | residual activity [34] 97% | residual activity [35] 93% | residual activity [36] 91% | residual activity [37] 99% | residual activity [38] 100% | inhibition [39] 10.8% | inhibition [40] -1.48% | residual activity [41] 72% | residual activity [42] 100% | residual activity [43] 100% | residual activity [44] 88%
